Laboratory results taken from paper PMC8597734 (Antimicrobial Agents and Chemotherapy, 2021).
Converted amounts (≈) assume the structure as drawn. Where two headings read alike, the source gives them in different places.

Assays:
[1] = tested on: M. abscessus subsp. abscessus M422; assay: microbe, parasite or virus in culture; type: cell-based, Mycobacterium abscessus; settings: Mycobacteroides abscessus, 72 h
human serum albumin = target: T1, human serum albumin (Homo sapiens, UniProt P02768); assay: Drug binding to human serum albumin (HSA HPLC column); type: in vitro ADME; settings: immobilized human serum albumin HPLC column, pH 7.4, read-out: Protein binding (converted)
T1 construct: purchased Chiral Technologies Ltd., France

[2] = tested on: M. intracellulare ATCC 13950; assay: microbe, parasite or virus in culture; type: cell-based; settings: Mycobacterium intracellulare, ATCC13950, 96 h
[3] = tested on: M. abscessus subsp. abscessus K21; assay: M. abscessus mouse infection model; type: in vivo, Mycobacterium abscessus; settings: NOD SCID mice, intranasal infection, 400 mg/kg oral once daily for 10 days; statistically significant
Method: In vivo efficacy determinations were carried out as described previously, using 8-week-old female NOD.CB17-Prkdc^scid/NCrCrl (NOD SCID) mice (Charles River Laboratories) and the M. abscessus subsp. abscessus K21 strain ([48]). Briefly, anesthetized animals were infected by intranasal delivery of ∼10^6 CFU of M. abscessus subsp. abscessus K21. Acute infection was achieved within 1 day. Drugs or the vehicle control was administered to NOD SCID mice once daily for 10 consecutive days by oral gavage, starting from 1 day postinfection. Clarithromycin was formulated in 0.4% methyl cellulose–sterile water and administered at a dose of 250 mg/kg. […] EC/11716 was formulated in 0.4% methyl cellulose–sterile water and administered at 400 mg/kg. All mice were euthanized 24 h after the last dose (11 days postinfection), and their lungs and spleen were aseptically removed prior to homogenization. The bacterial load in these organs was determined by plating serial dilutions of the organ homogenates onto Middlebrook 7H11 agar (BD Difco) supplemented with 0.2% (vol/vol) glycerol and 10% (vol/vol) OADC. The agar plates were incubated for 5 days at 37°C prior to counting of colonies. All studies were conducted in accordance with the GSK Policy on the Care, Welfare and Treatment of Laboratory Animals and were reviewed the Institutional Animal Care and Use Committee either at GSK or by the ethical review process at the institution where the work was performed. All experiments involving live animals were approved by the Institutional Animal Care and Use Committee of the Center for Discovery and Innovation, Hackensack Meridian Health.

[4] = tested on: M. abscessus Bamboo RM1 (GyrA M129K); assay: microbe, parasite or virus in culture; type: cell-based, Mycobacterium abscessus
[5] = tested on: M. abscessus subsp. massiliense CCUG 48898T; assay: microbe, parasite or virus in culture; type: cell-based, Mycobacterium abscessus; settings: Mycobacteroides abscessus, 72 h
[6] = AMP (artificial membrane permeability) assay; type: in vitro ADME; settings: PAMPA, pH 7.4
Method: An 8% L-a-phosphatidylcholine (EPC) in 1% cholesterol decane solution and a 1.8% EPC in cholesterol decane solution were prepared. The lipid solution was aliquoted into 4 ml capped vials, sealed with parafilm and stored in −20°C freezer. The lipid solution was then transferred from 4 ml vial into a 96-well half area plate (130 μl/well) for daily assay usage. An additional 50 mM phosphate buffer with 0.5% encapsin, pH at 7.4 was prepared. The assay was run by the Biomek FX and Biomek software. The assay procedure is written under the Biomek software. For one batch assay, it can test two 96-well sample plates with at least one standard on each sample plate. The total assay time was about 4 h. 3.5 μl of lipid solution were added to the filler plate, shaken for 12 s, and 250 μl of buffer were added to donor side and 100 μl to the receiver side. The assay plate was shaken for 45 min before adding the compounds. The test compounds (2.5 μl) were added to the donor side. The assay was run as replicates: Assay plates 1 and 2 tested the sample plate 1; assay plates 3 and 4 tested the sample plate 2. The assay plates were then incubated and shaken for 3 h at room temperature. The assay samples were transferred to the HPLC analysis plates and 100 μl of receiver solution were aspirated and transferred to the receiver for analysis. […] Compound concentration was measured by HPLC at different time points.

[7] = tested on: M. abscessus Bamboo RM4 (GyrA D91G); assay: microbe, parasite or virus in culture; type: cell-based, Mycobacterium abscessus
[8] = tested on: M. abscessus subsp. bolletii M232; assay: microbe, parasite or virus in culture; type: cell-based, Mycobacterium abscessus; settings: Mycobacteroides abscessus, 72 h
Tolerability in mice = type: in vivo, mouse; settings: tolerated at doses up to
[9] = Stability in microsomes (intrinsic clearance); type: in vitro ADME, mouse
Method: Intrinsic clearance (CLi) values were determined in mouse and human liver microsomes. Test compounds (final concentration 0.5 μM) were incubated at 37°C for 30 min in 50 mM potassium phosphate buffer (pH 7.4) containing 0.5 mg microsomal protein/ml. The reaction was started by addition of cofactor NADPH. At 10 different time points (from zero to 30 min) an aliquot (90 μl) was taken, quenched with acetonitrile-methanol containing an appropriate internal standard, centrifuged and analyzed by LC-MS/MS. The intrinsic clearance (CLi) was determined using the following equation: CLi=k*(ml of incubation/mg microsomal protein)*(mg microsomal protein/g liver)
Where k is the turn-over rate constant of the ln (% remaining compound) versus time regression and mg microsomal protein/g liver is 52.5 for both mouse and human.

[10] = tested on: nutrient-starved, nonreplicating M. abscessus Bamboo; assay: MBC determination under nutrient-starved conditions; type: cell-based, Mycobacterium abscessus; settings: 48 h drug exposure
Method: The determination of drug bactericidal activity against nutrient-starved M. abscessus cultures was performed as previously described ([52]). […] Washed culture was then diluted with PBS/Tyloxapol to OD600 = 0.2 (1.8 × 10^7 CFU/ml). […] Appropriate concentrations of drugs up to 100 μM were added to the tubes prior to incubation at 37°C on a tilted rack in an orbital shaker at 220 rpm.

M. avium 11 = assay: microbe, parasite or virus in culture; type: cell-based; settings: Mycobacterium avium, 11, 96 h
[11] = tested on: anaerobic, nonreplicating M. abscessus Bamboo; assay: MBC determination under anaerobic conditions; type: cell-based, Mycobacterium abscessus; settings: 48 h drug exposure

T1 sequence (P02768 25-609): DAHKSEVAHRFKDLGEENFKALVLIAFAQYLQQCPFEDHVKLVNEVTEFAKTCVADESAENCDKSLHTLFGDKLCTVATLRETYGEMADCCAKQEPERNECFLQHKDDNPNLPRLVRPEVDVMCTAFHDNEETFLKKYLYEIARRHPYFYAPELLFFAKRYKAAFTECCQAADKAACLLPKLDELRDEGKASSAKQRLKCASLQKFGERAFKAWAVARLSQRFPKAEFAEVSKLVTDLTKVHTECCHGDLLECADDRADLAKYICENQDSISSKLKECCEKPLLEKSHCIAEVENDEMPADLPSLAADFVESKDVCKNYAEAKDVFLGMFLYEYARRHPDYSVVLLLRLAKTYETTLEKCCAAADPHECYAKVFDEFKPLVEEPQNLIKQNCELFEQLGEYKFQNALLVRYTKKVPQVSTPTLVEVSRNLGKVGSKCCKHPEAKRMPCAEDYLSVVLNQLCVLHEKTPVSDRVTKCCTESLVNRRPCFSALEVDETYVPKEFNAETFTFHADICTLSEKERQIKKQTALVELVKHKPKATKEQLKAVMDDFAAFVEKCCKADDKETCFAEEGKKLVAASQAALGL

SMILES: COc1cnc2ccc(=O)n(CCN3CCC(NCc4cnc(CO)c(Cl)c4)CC3)c2c1 [EC/11716]
- MIC [1]: 1.8 µM (≈ 0.824 µg/mL)
- fraction unbound (human serum albumin): 0.505
- MIC [2]: 3.3 µM (≈ 1.51 µg/mL)
- reduction in lung CFU [3]: 1 log
- MIC [4]: >100 µM
- MIC ([4]; Mycobacteroides abscessus): > 100 µM
- MIC [5]: 4.7 µM (≈ 2.15 µg/mL)
- Papp at 3 h [6]: 16 ×10⁻⁶ cm/s
- MIC [7]: >100 µM
- MIC ([7]; Mycobacteroides abscessus): > 100 µM
- MIC [8]: 2.5 µM (≈ 1.14 µg/mL)
- tolerated dose (Tolerability in mice): up to 550 mg/kg
- Mouse In vitro CLint ([9]; mouse hepatic microsomes, free base form): 1.6 ml/min/g tissue
- mouse microsomal clearance ([9]; mouse microsomes): 1.6 ml/min/g protein
- MBC [10]: >100 µM
- MBC ([10]; Mycobacteroides abscessus): > 100 µM
- MIC (M. avium 11): 1.1 µM (≈ 0.504 µg/mL)
- MBC [11]: >100 µM
- MBC ([11]; Mycobacteroides abscessus): > 100 µM
